Source: patent publication US20250179047A1, “5-[7-(3,4-DIHYDRO-1H-ISOQUINOLINE-2-CARBONYL)-1,2,3,4 TETRAHYDROISOQUINOLIN-6-YL]-1H-PYRROLE-3-CARBOXAMIDE DERIVATIVES, PHARMACEUTICAL COMPOSITIONS CONTAINING THEM AND THEIR USES AS PRO-APOPTOTIC AGENTS” (LES LABORATOIRES SERVIER, priority 2022, published 2025)
pKi: −log10 of the molar value.

How the values were obtained:
BCL2 D103Y = BCL2 D103Y (Homo sapiens, UniProt P10415, D103Y); assay: TR-FRET competitive binding assay, BCL2 D103Y; conditions: Ki determined from IC50, read-out: TR_FRET EKI_Bcl2 D103Y
Summary of the method: (§1)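 Terbium-labelled N-terminal Halo-fusion BCL2 or BCLXL (E. coli), 0.5 nM, competed against fluorescein-labelled PUMA peptide (2 or 20 nM) for 2 h at 23° C in 50 mM Hepes pH 7.5, 150 mM NaCl, 5% DMSO. TR-FRET 520/495 nm ratio gave IC50 by four-parameter fit; Ki derived from IC50.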

KMS-12-PE Bcl-2 G101V = assay: In vitro cytotoxicity CellTiter-Glo 48 h, KMS-12-PE Bcl-2 G101V; assay type: cell-based; conditions: for Ratio (G101V/WT): C50 KMS-12-PE Bcl-2 G101V over C50 KMS-12-PE Bcl-2 WT; for IC50: Homo sapiens, KMS-12-PE, 48 h, CellTiter-Glo, C50 = concentration needed to reach 50% of the cellular viability
Summary of the method: (§2)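 Potency is expressed as C50, the compound concentration at which viability of engineered KMS-12-PE cells (Bcl-2 wild type or G101V) falls to 50%, determined from CellTiter-Glo luminescence after 48 h of treatment over 11 concentrations.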

BCL2 WT = BCL2 WT (Homo sapiens (Human), UniProt P10415); assay: TR-FRET competitive binding assay, BCL2 WT; conditions: Ki determined from IC50, read-out: TR_FRET EKI_Bcl2 WT
Summary of the method: as §1

KMS-12-PE Bcl-2 WT = assay: In vitro cytotoxicity CellTiter-Glo 48 h, KMS-12-PE Bcl-2 WT; assay type: cell-based; conditions: Homo sapiens, KMS-12-PE, C50 = concentration needed to reach 50% of the cellular viability
Summary of the method: as §2

BCL2 G101V [1] = assay: TR-FRET competitive binding assay, BCL2 G101V; design: species or system human; conditions: ratio Ki BCL2 G101V / Ki BCL2 WT
Summary of the method: as §1

BCL2 G101V [2] = molecular target: BCL2 G101V (Homo sapiens, UniProt P10415, G101V); assay: TR-FRET competitive binding assay, BCL2 G101V; conditions: BCL2 G101V; Ki determined from IC50; read-out: TR_FRET EKI_Bcl2 G101V
Summary of the method: as §1

BCLXL WT = BCLXL WT (Homo sapiens (Human), UniProt Q07817); assay: TR-FRET competitive binding assay, BCLXL WT; conditions: for pKi: BCLXL WT, Ki determined from IC50, read-out: TR_FRET EKI BclxL; for TR_FRET EKI BCLxL/WT selectivty ratio: ratio Ki BCLxL / Ki BCL2 WT
Sequence of BCLXL WT (Q07817 other isoform, or with tags, fused parts or gaps): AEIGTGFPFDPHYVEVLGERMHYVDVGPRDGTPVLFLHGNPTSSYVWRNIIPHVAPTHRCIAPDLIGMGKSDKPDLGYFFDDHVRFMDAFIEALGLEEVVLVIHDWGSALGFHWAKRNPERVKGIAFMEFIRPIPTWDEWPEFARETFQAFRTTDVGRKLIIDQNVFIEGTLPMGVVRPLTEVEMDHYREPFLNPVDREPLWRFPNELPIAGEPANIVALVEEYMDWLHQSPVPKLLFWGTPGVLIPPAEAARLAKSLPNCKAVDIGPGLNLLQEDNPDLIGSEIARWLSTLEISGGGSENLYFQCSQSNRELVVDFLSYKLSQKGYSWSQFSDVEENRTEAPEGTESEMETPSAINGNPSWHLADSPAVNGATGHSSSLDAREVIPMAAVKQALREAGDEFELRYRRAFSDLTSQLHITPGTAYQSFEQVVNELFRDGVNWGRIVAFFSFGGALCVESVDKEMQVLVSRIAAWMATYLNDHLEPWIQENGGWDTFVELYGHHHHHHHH
Summary of the method: as §1

pKi (BCL2 D103Y)	pKi (BCL2 WT)	TR_FRET EKI G101V/WT selectivty ratio (BCL2 G101V [1])	pKi (BCL2 G101V [2])	pKi (BCLXL WT)	TR_FRET EKI BCLxL/WT selectivty ratio (BCLXL WT)	Structure (SMILES)	Ratio (G101V/WT) (KMS-12-PE Bcl-2 G101V)	IC50 (KMS-12-PE Bcl-2 G101V) [µM]	IC50 (KMS-12-PE Bcl-2 WT) [µM]
10.22	10.70	8.9	9.70	8.64	127.8	Cc1c(N(C(=O)c2cc(-c3cc4c(cc3C(=O)N3Cc5ccccc5C[C@H]3CN3CCCC3)CN(C(=O)Cc3ccc(OCCN5CCOCC5)cc3F)CC4)n(C)c2C)c2ccc(O)cc2)cc(C#N)n1C [Example 100, N-(5-cyano-1,2-dimethylpyrrol-3-yl)-5-[2-(2-{2-fluoro-4-[2-(morpholin-4-yl)ethoxy]phenyl}acetyl)-7-{[(3S)-3-(pyrrolidin-1-ylmethyl)-3,4-dihydro-1H-isoquinolin-2-yl]carbonyl}-3,4-dihydro-1H-isoquinolin-6-yl]-N-(4-hydroxyphenyl)-1,2-dimethylpyrrole-3-carboxamide]	4.23	0.066	0.0156
9.85	10.30	7.0	9.52	8.54	61.7	Cc1c(N(C(=O)c2cc(-c3cc4c(cc3C(=O)N3Cc5ccccc5C[C@H]3CN3CCCCC3)CN(C(=O)Cc3ccc(OCCN5CCOCC5)cc3Cl)CC4)n(C)c2C)c2ccc(O)cc2)cc(C#N)n1C [Example 161, 5-[2-[2-[2-chloro-4-(2-morpholinoethoxy)phenyl]acetyl]-7-[(3S)-3-(1-piperidylmethyl)-3,4-dihydro-1H-isoquinoline-2-carbonyl]-3,4-dihydro-1H-isoquinolin-6-yl]-N-(5-cyano-1,2-dimethyl-pyrrol-3-yl)-N-(4-hydroxyphenyl)-1,2-dimethyl-pyrrole-3-carboxamide]	4.6212	0.0427	0.0092
10.05	10.40	7.7	9.52	8.70	45.5	Cc1c(N(C(=O)c2cc(-c3cc4c(cc3C(=O)N3Cc5ccccc5C[C@H]3CN3CC[C@H](C)C3)CN(C(=O)Cc3ccc(OCCN5CCOCC5)cc3F)CC4)n(C)c2C)c2ccc(O)cc2)cc(C#N)n1C [Example 157, N-(5-cyano-1,2-dimethylpyrrol-3-yl)-5-[2-(2-{2-fluoro-4-[2-(morpholin-4-yl)ethoxy]phenyl}acetyl)-7-{[(3S)-3-{[(3S)-3-methylpyrrolidin-1-yl]methyl}-3,4-dihydro-1H-isoquinolin-2-yl]carbonyl}-3,4-dihydro-1H-isoquinolin-6-yl]-N-(4-hydroxyphenyl)-1,2-dimethylpyrrole-3-carboxamide]	5.5848	0.0955	0.0171
10.05	10.70	7.1	9.70	8.89	61.9	Cc1c(N(C(=O)c2cc(-c3cc4c(cc3C(=O)N3Cc5ccccc5C[C@H]3CN3CCCC3)CN(C(=O)Cc3c(F)cc(OCCN5CCOCC5)cc3F)CC4)n(C)c2C)c2ccc(O)cc2)cc(C#N)n1C [Example 171, N-(5-cyano-1,2-dimethyl-pyrrol-3-yl)-5-[2-[2-[2,6-difluoro-4-(2-morpholinoethoxy)phenyl]acetyl]-7-[(3S)-3-(pyrrolidin-1-ylmethyl)-3,4-dihydro-1H-isoquinoline-2-carbonyl]-3,4-dihydro-1H-isoquinolin-6-yl]-N-(4-hydroxyphenyl)-1,2-dimethyl-pyrrole-3-carboxamide]	4.7109	0.0603	0.0128

More lines, now with the values behind:

Structure (SMILES)	pKi (BCL2 D103Y)	pKi (BCL2 WT)	TR_FRET EKI G101V/WT selectivty ratio (BCL2 G101V [1])	pKi (BCL2 G101V [2])	pKi (BCLXL WT)	TR_FRET EKI BCLxL/WT selectivty ratio (BCLXL WT)	Ratio (G101V/WT) (KMS-12-PE Bcl-2 G101V)	IC50 (KMS-12-PE Bcl-2 G101V) [µM]	IC50 (KMS-12-PE Bcl-2 WT) [µM]
Cc1c(N(C(=O)c2cc(-c3cc4c(cc3C(=O)N3Cc5ccccc5C[C@H]3CN3CCCCC3)CN(C(=O)Cc3ccc(OCCN(C)C5COC5)cc3)CC4)n(C)c2C)c2ccc(O)cc2)cc(C#N)n1C [Example 106, N-(5-cyano-1,2-dimethyl-1H-pyrrol-3-yl)-N-(4-hydroxyphenyl)-1,2-dimethyl-5-{2-[2-(4-{2-[methyl(oxetan-3-yl)amino]ethoxy}phenyl)acetyl]-7-[(3S)-3-[(piperidin-1-yl)methyl]-1,2,3,4-tetrahydroisoquinoline-2-carbonyl]-1,2,3,4-tetrahydroisoquinolin-6-yl}-1H-pyrrole-3-carboxamide]	9.72	10.30	6.2	9.52	8.74	36.0	4.53	0.0485	0.0107
Cc1c(N(C(=O)c2cc(-c3cc4c(cc3C(=O)N3Cc5ccccc5C[C@H]3CN3CCCCC3)CN(C(=O)Cc3ccc(OCCN5CCO[C@H](C)C5)cc3)CC4)n(C)c2C)c2ccc(O)cc2)cc(C#N)n1C [Example 151, N-(5-cyano-1,2-dimethyl-1H-pyrrol-3-yl)-N-(4-hydroxyphenyl)-1,2-dimethyl-5-[2-(2-{4-[2-((2R)-2-methylmorpholin-4-yl)ethoxy]phenyl}acetyl)-7-[(3S)-3-[(piperidin-1-yl)methyl]-1,2,3,4-tetrahydroisoquinoline-2-carbonyl]-1,2,3,4-tetrahydroisoquinolin-6-yl]-1H-pyrrole-3-carboxamide]	10.00	10.30	6.4	9.52	8.57	57.4	6.0476	0.0635	0.0105
Cc1c(N(C(=O)c2cc(-c3cc4c(cc3C(=O)N3Cc5ccccc5C[C@H]3C)CN(C(=O)Cc3ccc(OCCN5CC6(CCS6(=O)=O)C5)cc3)CC4)n(C)c2C)c2ccc(O)cc2)cc(C#N)n1C [Example 37, N-(5-cyano-1,2-dimethyl-1H-pyrrol-3-yl)-5-(2-{2-[4-(2-{1,1-dioxo-1λ^6-thia-6-azaspiro[3.3]heptan-6-yl}ethoxy)phenyl]acetyl}-7-[(3R)-3-methyl-1,2,3,4-tetrahydroisoquinoline-2-carbonyl]-1,2,3,4-tetrahydroisoquinolin-6-yl)-N-(4-hydroxyphenyl)-1,2-dimethyl-1H-pyrrole-3-carboxamide]	9.55	10.00	2.7	9.52	8.89	13.0	5.36	0.0932	0.0174
COc1ccc(N(C(=O)c2cc(-c3cc4c(cc3C(=O)N3Cc5ccccc5C[C@H]3CN(C)C(C)C)CN(C(=O)Cc3ccc(OCCN5CCOCC5)cc3F)CC4)n(C)c2C)c2ccc(O)cc2)cc1C#N [Example 179, N-(3-cyano-4-methoxy-phenyl)-5-[2-[2-[2-fluoro-4-(2-morpholinoethoxy)phenyl]acetyl]-7-[(3S)-3-[[isopropyl(methyl)amino]methyl]-3,4-dihydro-1H-isoquinoline-2-carbonyl]-3,4-dihydro-1H-isoquinolin-6-yl]-N-(4-hydroxyphenyl)-1,2-dimethyl-pyrrole-3-carboxamide]	9.89	10.40	14.7	9.22	8.21	148.0	9.658	0.113	0.0117
Cc1c(N(C(=O)c2cc(-c3cc4c(cc3C(=O)N3Cc5ccccc5C[C@H]3C)CN(C(=O)C3Cc5ccccc5O3)CC4)n(C)c2C)c2ccc(O)cc2)cc(C#N)n1C (stereo partly drawn) [Example 20, N-(5-cyano-1,2-dimethylpyrrol-3-yl)-5-{2-[(2,3-dihydro-1-benzofuran-2-yl)carbonyl]-7-{[(3R)-3-methyl-3,4-dihydro-1H-isoquinolin-2-yl]carbonyl}-3,4-dihydro-1H-isoquinolin-6-yl}-N-(4-hydroxyphenyl)-1,2-dimethylpyrrole-3-carboxamide]	9.17	9.28	5.0	8.57	8.18	12.5	6.74	0.0681	0.0101
Cc1c(N(C(=O)c2cc(-c3cc4c(cc3C(=O)N3Cc5ccccc5C[C@H]3CN3CCCCC3)CN(C(=O)COc3ccccc3)CC4)n(C)c2C)c2ccc(O)cc2)cc(C#N)n1C [Example 133, N-(5-cyano-1,2-dimethyl-1H-pyrrol-3-yl)-N-(4-hydroxyphenyl)-1,2-dimethyl-5-[2-(2-phenoxyacetyl)-7-[(3S)-3-[(piperidin-1-yl)methyl]-1,2,3,4-tetrahydroisoquinoline-2-carbonyl]-1,2,3,4-tetrahydroisoquinolin-6-yl]-1H-pyrrole-3-carboxamide]	9.42	10.15	9.4	9.22	8.72	29.2	5.59	0.0556	0.01
